Reference: ChEMBL document CHEMBL3885861, “Open TG-GATES”

Species: Rattus norvegicus
Experiment: Open TG-GATES - Regimen: Daily Repeat
Type: toxicity, organism-based, Sprague-Dawley
Set-up: regimen Daily Repeat, gender Male, age 6 weeks
Conditions: in vivo, sc, 0 mg/kg, route subcutaneous injection, dose 0 ug/Kg, dose level Control; for APTT / Bas / Eos / Fbg / Hb / Ht / Lym / MCH / MCHC / MCV / Mono / Neu / PT / Plat / RBC / Ret / WBC: tissue Blood
[1] = 72 h, tissue Kidney, time 3 day
[2] = 72 h, tissue Plasma, time 3 day

For CC(=O)O.N=C(N)NCCC[C@@H](NC(=O)[C@@H]1CCCN1C(=O)[C@@H]1CSSCCC(=O)N[C@@H](Cc2ccc(O)cc2)C(=O)N[C@@H](Cc2ccccc2)C(=O)N[C@@H](CCC(N)=O)C(=O)N[C@@H](CC(N)=O)C(=O)N1)C(=O)NCC(N)=O [DESMOPRESSIN ACETATE], the TERMINAL_BW (72 h, time 3 day) was 251.2 g, the APTT (72 h, time 3 day) was 16.5 s and the Bas (72 h, time 3 day) was 0%. For the same molecule, the Eos (72 h, time 3 day) was 1%, the Fbg (72 h, time 3 day) was 269.4 mg/dL and the Hb (72 h, time 3 day) was 13.2 g/dL. The Ht (72 h, time 3 day) was 40.3%, the Lym (72 h, time 3 day) was 66.8% and the MCH (72 h, time 3 day) was 21.5 pg. For the same molecule, the MCHC (72 h, time 3 day) was 32.7%, the MCV (72 h, time 3 day) was 65.7 fL and the Mono (72 h, time 3 day) was 9.6%. It also gave a Neu (72 h, time 3 day) of 22.4%, a PT (72 h, time 3 day) of 11.9 s and a Plat (72 h, time 3 day) of 133.8 x10_4/uL. The RBC (72 h, time 3 day) was 613.4 x10_4/ul, the Ret (72 h, time 3 day) was 6.9% and the WBC (72 h, time 3 day) was 105.2 x10_2/uL. It also gave a KIDNEY_L [1] of 1 g, a KIDNEY_R [1] of 1.1 g and a KIDNEY_TOTAL [1] of 2.1 g. It also gave an LIVER (72 h, tissue Liver, time 3 day) of 11.8 g, an A/G [2] of 2 and an ALP [2] of 1258.4 IU/L. The ALT [2] was 32.6 IU/L, the AST [2] was 68.8 IU/L and the BUN [2] was 15.6 mg/dL. It also gave a CRE [2] of 0.4 mg/dL, a Ca [2] of 11.2 mg/dL and a Cl [2] of 104.6 meq/L. The DBIL [2] was 0.01 mg/dL, the GLC [2] was 185.6 mg/dL and the IP [2] was 7.3 mg/dL. For the same molecule, the K [2] was 5.4 meq/L, the LDH [2] was 203 IU/L and the Na [2] was 136 meq/L. The PL [2] was 152.2 mg/dL, the RALB [2] was 3.7 g/dL and the TBIL [2] was 0.034 mg/dL. The TC [2] was 79.8 mg/dL, the TG [2] was 119.6 mg/dL and the TP [2] was 5.6 g/dL. For the same molecule, the gamma-GTP [2] was 1 IU/L, the TERMINAL_BW ([…], time 7 day) was 275.2 g and the TERMINAL_BW ([…], time 14 day) was 338.4 g. It also gave a TERMINAL_BW ([…], time 28 day) of 413.7 g, an APTT ([…], time 7 day) of 16.5 s and a Bas ([…], time 7 day) of 0%. The Eos ([…], time 7 day) was 1%, the Fbg ([…], time 7 day) was 262.8 mg/dL and the Hb ([…], time 7 day) was 13.6 g/dL. For the same molecule, the Ht ([…], time 7 day) was 41.6%, the Lym ([…], time 7 day) was 68.2% and the MCH ([…], time 7 day) was 21 pg. It also gave an MCHC ([…], time 7 day) of 32.8%, an MCV ([…], time 7 day) of 64.2 fL and a Mono ([…], time 7 day) of 7.4%. It also gave a Neu ([…], time 7 day) of 23.4%, a PT ([…], time 7 day) of 12 s and a Plat ([…], time 7 day) of 124.2 x10_4/uL. For the same molecule, the RBC ([…], time 7 day) was 648.6 x10_4/ul, the Ret ([…], time 7 day) was 6.6% and the WBC ([…], time 7 day) was 103.6 x10_2/uL. For the same molecule, the APTT ([…], time 14 day) was 15.5 s, the Bas ([…], time 14 day) was 0% and the Eos ([…], time 14 day) was 1%. It also gave a Fbg ([…], time 14 day) of 263.4 mg/dL, a Hb ([…], time 14 day) of 14.2 g/dL and a Ht ([…], time 14 day) of 43.5%. For the same molecule, the Lym ([…], time 14 day) was 74.8%, the MCH ([…], time 14 day) was 20.7 pg and the MCHC ([…], time 14 day) was 32.6%. For the same molecule, the MCV ([…], time 14 day) was 63.2 fL, the Mono ([…], time 14 day) was 7.8% and the Neu ([…], time 14 day) was 16.8%. The PT ([…], time 14 day) was 11.7 s, the Plat ([…], time 14 day) was 130.6 x10_4/uL and the RBC ([…], time 14 day) was 687 x10_4/ul. The Ret ([…], time 14 day) was 6%, the WBC ([…], time 14 day) was 122.6 x10_2/uL and the APTT ([…], time 28 day) was 17.8 s. For the same molecule, the Bas ([…], time 28 day) was 0%, the Eos ([…], time 28 day) was 1.6% and the Fbg ([…], time 28 day) was 249.4 mg/dL. For the same molecule, the Hb ([…], time 28 day) was 15.2 g/dL and the Ht ([…], time 28 day) was 46.3%.
